The values below come from patent US20240245677A1, “SELECTED COMPOUNDS FOR TARGETED DEGRADATION OF BRD9” (C4 THERAPEUTICS, INC., priority 2021, published 2024).

Like-named read-outs stand apart in the source and are kept apart here.

Series [1] deals with Yamato-SS synovial sarcoma cell line. The series is described as follows: Global proteomics in Yamato-SS cells. Particulars: 100 nM, 4 hours; for Emax at 0.1 µM: Homo sapiens. The format is cell-based, human. On the procedure:
Global protein expression was performed in Yamato-SS and HSSYII synovial sarcoma cell lines after 4-hour treatment with Compound 1 (100 nM). The Yamato-SS cell line was provided by the RIKEN BRC through the National BioResource Project of the MEXT/AMED, Japan (cat #RCB3577), and the HS-SY-II cell line was provided by the RIKEN BRC through the National BioResource Project of the MEXT/AMED, Japan (cat #RCB2231).
Both Yamato-SS and HSSYII cell lines were treated with Compound 1 at 100 nM for 4 hours and analyzed by multiplexed quantitative proteomics. The x-axis illustrates the totality of the proteomics data and is labeled as fold change (FC) of Compound 1 vs vehicle in a Log 2 transformation scale. The statistical significance (T-test of treated vs. DMSO with Benjamini-Hochberg correction applied) of the observed changes is shown in the y-axis as negative Log 10 of the P-value. The horizontal dashed line marks the statistical significance (P-value ≤0.001) and the vertical line marks fold change ≥2.

For another series, the target named is T1, SALL4 (Homo sapiens, UniProt Q96SW2+Q9UJQ4).
T1 construct: CRISPR-edited to endogenously express HiBiT tagged SALL4; host or cells: KELLY.2
T1 sequence (Q9UJQ4 whole entry): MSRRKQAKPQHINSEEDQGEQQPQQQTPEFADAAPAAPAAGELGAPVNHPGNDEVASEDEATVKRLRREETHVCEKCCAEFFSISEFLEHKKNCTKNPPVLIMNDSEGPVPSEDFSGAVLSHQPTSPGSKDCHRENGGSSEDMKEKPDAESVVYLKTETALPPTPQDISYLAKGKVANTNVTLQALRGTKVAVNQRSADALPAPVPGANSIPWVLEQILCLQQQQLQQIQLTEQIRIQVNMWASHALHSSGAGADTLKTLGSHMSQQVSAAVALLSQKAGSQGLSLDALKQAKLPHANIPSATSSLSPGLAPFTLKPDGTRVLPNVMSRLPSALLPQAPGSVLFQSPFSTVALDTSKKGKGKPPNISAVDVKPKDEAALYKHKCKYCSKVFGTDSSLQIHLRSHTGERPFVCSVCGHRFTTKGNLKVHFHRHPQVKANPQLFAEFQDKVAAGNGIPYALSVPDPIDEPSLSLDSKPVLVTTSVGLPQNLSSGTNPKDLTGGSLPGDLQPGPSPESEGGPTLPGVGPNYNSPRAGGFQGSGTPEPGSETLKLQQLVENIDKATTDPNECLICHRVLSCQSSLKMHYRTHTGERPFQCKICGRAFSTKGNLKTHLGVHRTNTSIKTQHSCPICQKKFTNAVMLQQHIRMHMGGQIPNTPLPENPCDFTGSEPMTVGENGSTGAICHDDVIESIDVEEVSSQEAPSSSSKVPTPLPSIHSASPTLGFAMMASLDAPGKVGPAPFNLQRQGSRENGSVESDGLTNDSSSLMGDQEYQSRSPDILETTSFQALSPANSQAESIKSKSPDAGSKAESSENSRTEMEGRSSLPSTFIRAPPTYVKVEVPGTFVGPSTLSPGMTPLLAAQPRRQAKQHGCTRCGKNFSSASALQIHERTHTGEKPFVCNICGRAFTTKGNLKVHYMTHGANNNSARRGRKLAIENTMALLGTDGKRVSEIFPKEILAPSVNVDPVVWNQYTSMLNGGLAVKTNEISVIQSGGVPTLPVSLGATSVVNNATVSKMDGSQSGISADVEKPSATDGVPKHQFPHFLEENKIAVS
T1 sequence (Q96SW2 whole entry): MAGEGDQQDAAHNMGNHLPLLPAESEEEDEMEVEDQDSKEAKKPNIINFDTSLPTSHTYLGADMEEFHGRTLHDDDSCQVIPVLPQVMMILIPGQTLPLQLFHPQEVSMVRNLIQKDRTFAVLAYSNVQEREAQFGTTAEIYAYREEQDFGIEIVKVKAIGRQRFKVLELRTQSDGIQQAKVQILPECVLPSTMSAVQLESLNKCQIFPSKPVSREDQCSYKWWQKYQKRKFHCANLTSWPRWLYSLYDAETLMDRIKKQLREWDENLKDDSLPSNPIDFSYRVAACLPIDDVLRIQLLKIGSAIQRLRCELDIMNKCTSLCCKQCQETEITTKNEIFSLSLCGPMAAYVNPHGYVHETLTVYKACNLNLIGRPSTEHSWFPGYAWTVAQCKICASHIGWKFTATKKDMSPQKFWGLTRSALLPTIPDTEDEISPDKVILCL
T1 sequence (Q16531 2-1140 partner limits assumed): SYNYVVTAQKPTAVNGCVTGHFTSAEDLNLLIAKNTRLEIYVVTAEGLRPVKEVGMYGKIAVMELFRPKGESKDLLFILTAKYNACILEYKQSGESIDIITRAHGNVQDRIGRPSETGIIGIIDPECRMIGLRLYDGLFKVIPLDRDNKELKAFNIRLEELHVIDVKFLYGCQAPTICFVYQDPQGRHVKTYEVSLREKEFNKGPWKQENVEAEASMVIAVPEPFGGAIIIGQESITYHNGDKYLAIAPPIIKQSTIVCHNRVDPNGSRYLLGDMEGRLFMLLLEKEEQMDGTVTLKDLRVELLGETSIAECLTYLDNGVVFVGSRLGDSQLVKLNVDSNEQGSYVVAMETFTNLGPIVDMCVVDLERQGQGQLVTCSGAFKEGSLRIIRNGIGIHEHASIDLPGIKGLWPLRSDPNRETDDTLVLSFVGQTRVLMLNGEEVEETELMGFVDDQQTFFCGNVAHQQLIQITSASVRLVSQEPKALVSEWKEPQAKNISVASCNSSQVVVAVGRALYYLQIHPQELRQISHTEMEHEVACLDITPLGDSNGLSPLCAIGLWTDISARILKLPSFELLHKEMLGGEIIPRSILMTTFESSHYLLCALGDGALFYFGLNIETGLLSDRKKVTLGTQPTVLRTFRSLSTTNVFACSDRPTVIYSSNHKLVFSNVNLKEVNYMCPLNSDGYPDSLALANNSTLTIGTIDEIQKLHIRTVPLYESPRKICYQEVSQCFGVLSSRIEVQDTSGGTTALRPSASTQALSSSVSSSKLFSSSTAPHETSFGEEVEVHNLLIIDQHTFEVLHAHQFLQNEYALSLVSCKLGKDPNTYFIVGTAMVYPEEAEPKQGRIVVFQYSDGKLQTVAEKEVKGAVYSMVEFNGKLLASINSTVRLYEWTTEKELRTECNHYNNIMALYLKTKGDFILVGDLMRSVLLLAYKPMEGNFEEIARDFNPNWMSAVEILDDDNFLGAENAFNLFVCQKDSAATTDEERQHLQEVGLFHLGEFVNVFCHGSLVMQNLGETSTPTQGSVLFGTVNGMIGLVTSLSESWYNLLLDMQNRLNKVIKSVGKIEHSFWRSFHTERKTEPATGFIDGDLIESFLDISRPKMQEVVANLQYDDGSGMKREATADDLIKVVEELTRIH
Nature of the series: SALL4 HiBiT degradation assay in KELLY.2 cells. The format is cell-based. The source says:
Nano-Glo® HiBiT Lytic Assay System was purchased from Promega (Catalog No. N3050, Madison, WI, USA). […] The HiBiT polypeptide tag was introduced into the C-terminus of the endogenous SALL4 locus by CRISPR-Cas9 to produce the modified KELLY.2 cell line. The HiBiT polypeptide allows reconstitution of NanoBiT enzyme following cell lysis and addition of the complementing LgBiT polypeptide that activates substrate to produce a luminescent signal that is directly proportional to the amount of HiBiT-tagged SALL4.
KELLY.2 cells were routinely sub-cultured to maintain cell density between 30-80% confluence, not to exceed 10 passages. Cells were washed with PBS, trypsinized for 5 minutes at 37° C., and resuspended in fresh growth media without phenol red. […] Cell concentration was adjusted with growth media without phenol red to 2×10^5 cells/mL.
30 nL DMSO was transferred to all control wells.
30 μL of media was dispensed to column 24 as background positive control (P). Plates were spun briefly at 1000 rpm and cells were incubated at 37° C., 5% CO2 for 6 hours. Final concentration of DMSO was 0.1% for all samples.
Cellular SALL4 protein level was determined based on quantification of HiBiT using Nano-Glo® HiBiT Lytic Assay System (Promega). […] Cells treated in the absence of the test compound (0.1% DMSO vehicle) were the negative control (N) and wells containing only media were the positive control (P).
Percent response of compound-treated samples (T) were calculated by normalizing to the DMSO treated negative (N) controls on the same microtiter plate after background (i.e., positive control) signal subtraction:
Curve fit and DC50 (concentration that degrades 50% SALL4) determination was performed by 4 parametric logistic fit analysis using software such as GraphPad Prism software (GraphPad Software, LLC, San Diego, CA, USA). The fit was performed through minimization of the root mean squared error between observed and calculated values of the four-parameter logistic equation using the simplex optimizer of the Apache Commons Math library. […] DC50 values were computed as the concentrations where the fitted curves cross the 50% response level. Averages and standard deviations were computed from replicates of the experiment.

A short description of series [2]: Crystallization by heat-cool DSC. The format is physicochemical. Particulars: Cycle 2: 30 to 180° C. at 10° C./min; 180 to −20° C. at 2° C./min; re-heat to 250° C. at 10° C./min. On the procedure:
Polymorphic behavior of Compound 1 free form was investigated by two different heat-cool DSC cycles using free form Pattern E. A Tzero pan and a Tzero hermetic lid with a pin hole were used for this experiment. Cycle 1: 30° C. to 180° C. at 10° C./min; 180° C. to −20° C. at 20° C./min; reheat to 250° C. at 10° C./min. Cycle 2: 30° C. to 180° C. at 10° C./min; 180° C. to −20° C. at 2° C./min; reheat to 250° C. at 10° C./min.

For the molecule `COc1cc(-c2cn(C)c(=O)c(C)c2C)cc(OC)c1CN1CC[C@H](N2CCN(c3ccc(N[C@H]4CCC(=O)NC4=O)cc3F)CC2)C(F)(F)C1` [Compound 1, (S)-3-((4-(4-((S)-1-(2,6-dimethoxy-4-(1,4,5-trimethyl-6-oxo-1,6-dihydropyridin-3-yl)benzyl)-3,3-difluoropiperidin-4-yl)piperazin-1-yl)-3-fluorophenyl)amino)-piperidine-2,6-dione], the “ADAMST1 protein level decrease vs DMSO control” value in series [1] was determined as 66.3%. Further, the “BRD9 protein level decrease vs DMSO control” value in series [1] was 66.5%. The results for the Emax at 0.1 µM in series [1] (read-out: ADAMST1 Emax) and in series [1] (read-out: BRD9 Emax) were 33.7% and 33.5%, respectively. Besides, the “% SALL4 Remaining Relative to Vehicle Control at 6 hr, Mean” value worked out at 103.8% at SALL4 (0.101 nM); 104.1% on SALL4 (0.318 nM); 104.1% at SALL4 (1.01 nM); 103.7% on SALL4 (3.17 nM); 106.5% on SALL4 (10.0 nM); 106.1% on SALL4 (31.7 nM). Also, the “% SALL4 Remaining Relative to Vehicle Control at 6 hr, Mean” value at SALL4 (100 nM) was determined as 104.2%; at SALL4 (317 nM), 105.0%; at SALL4 (1000 nM), 104.0%; on SALL4 (3161 nM) it was 104.4%; on SALL4 (9990 nM), 96.6%. For the same molecule, the Emax on SALL4 (SALL4-HiBiT, KELLY.2 cells, 6 hours, read-out: Mean Emax (%) ± SD) stood at 98.9 ± 2.1%. Besides, the “effect on degradation of SALL4” value at SALL4 (concentrations up to 10 μM, 6 hours) is on record as “no significant effect”. In addition, in series [2], the “Thermal events: Glass transition” value is on record as “Glass transition: 135.7° C.; Delta Cp:”.
